One assay concerns SK-MEL-28. In words: Cytotoxicity against Homo sapiens (human) SK-MEL-28 cells. Type of assay: functional, cell-based.
The test system of a further assay is Candida albicans. In words: Antifungal activity against Candida albicans CECT 1394 after 48 hr. The class given is functional. The settings on record: CECT 1394, 48 h.
The subject of assay [1] is Spodoptera littoralis. Nature of the assay: Antifeedant activity against Spodoptera littoralis at 10 ppm. Type of assay: functional.
Another assay deals with A549. In words: Cytotoxicity against Homo sapiens (human) A549 cells. The class given is functional, cell-based.
In another assay the test system is Staphylococcus aureus. In words: Antibacterial activity against Staphylococcus aureus ATCC 8 after 24 hr. The class given is functional. The settings on record: ATCC 8, 24 h.
The next assay has as its system Saccharomyces cerevisiae. Nature of the assay: Antifungal activity against Saccharomyces cerevisiae S3 after 48 hr. The class given is functional. Conditions: S3, 48 h.
Another assay has as its system Enterococcus faecalis. In words: Antibacterial activity against Enterococcus faecalis OGIX after 24 hr. The class given is functional.
For another assay, the system named is Bacillus subtilis. Nature of the assay: Antibacterial activity against Bacillus subtilis CECT 397 after 24 hr. Type of assay: functional. Conditions: CECT 397, 24 h.
The subject of another assay is Proteus. Nature of the assay: Antibacterial activity against Proteus after 24 hr. Type of assay: functional.
Another assay concerns Cryptococcus neoformans. In words: Antifungal activity against Cryptococcus neoformans CECT 1075 after 48 hr. Type of assay: functional. Conditions: CECT 1075, 48 h.
The next assay deals with Pseudomonas aeruginosa. Nature of the assay: Antibacterial activity against Pseudomonas aeruginosa after 24 hr. The class given is functional.
Assay [2] has as its system Spodoptera littoralis. Nature of the assay: Antifeedant activity against Spodoptera littoralis at 100 ppm. Type of assay: functional.
For assay [3], the system named is Spodoptera littoralis. In words: Antifeedant activity against Spodoptera littoralis. Type of assay: functional, organism-based.
The test system of the next assay is HT-29. Nature of the assay: Cytotoxicity against Homo sapiens (human) HT-29 cells. The class given is functional, cell-based.
The test system of the next assay is P388. Nature of the assay: Cytotoxicity against […] cells. Type of assay: functional, cell-based. Conditions: Mus musculus.
In a further assay the test system is Salmonella typhimurium. In words: Antibacterial activity against Salmonella enterica subsp. enterica serovar Typhimurium after 24 hr. Type of assay: functional.

In brackets after ≈: the same amount, converted by molar mass.

For the compound `CC1(C)CCC[C@]2(C)[C@@H](CC=O)C(C=O)=CC[C@@H]12`, the IC50 in the assay with SK-MEL-28 came to 5 µg/mL (≈ 20.1 µM); with A549, 2.5 µg/mL (≈ 10.1 µM); in the assay on HT-29, 5 µg/mL (≈ 20.1 µM); in the assay on P388 it was 2.5 µg/mL (≈ 10.1 µM). The MIC is over 100 µg/mL with Candida albicans; 100 µg/mL (≈ 403 µM) with Staphylococcus aureus; 100 µg/mL (≈ 403 µM) with Saccharomyces cerevisiae; over 100 µg/mL in the assay on Enterococcus faecalis; 100 µg/mL (≈ 403 µM) against Bacillus subtilis; over 100 µg/mL against Proteus. Also, the values for the MIC with Cryptococcus neoformans, against Pseudomonas aeruginosa and in the assay on Salmonella typhimurium were over 100 µg/mL, 100 µg/mL (≈ 403 µM) and over 100 µg/mL, respectively. The AFI is listed as -17.9% with Spodoptera littoralis [1] and 51.7% with Spodoptera littoralis [2]. For the same compound, the Activity entry in the assay on Spodoptera littoralis [3] is “Dose-dependent effect”.

Turning to `CC1(C)CCC[C@]2(C)[C@@H](C=O)C(C=O)=CC[C@@H]12` [POLYGODIAL], half-maximal inhibition in the assay on SK-MEL-28 (IC50) was put at 2.5 µg/mL (≈ 10.7 µM). Moreover, the MIC in the assay with Candida albicans was over 100 µg/mL; against Staphylococcus aureus, over 100 µg/mL; against Saccharomyces cerevisiae it was 100 µg/mL (≈ 427 µM); in the assay on Enterococcus faecalis it was over 100 µg/mL; in the assay with Bacillus subtilis, over 100 µg/mL; with Proteus, over 100 µg/mL. For the same compound, the MIC in the assay with Cryptococcus neoformans, in the assay on Pseudomonas aeruginosa and in the assay on Salmonella typhimurium was over 100 µg/mL throughout. Also, the AFI in the assay with Spodoptera littoralis [1] is recorded as 24.9%; in the assay on Spodoptera littoralis [2], 7.4%.

Turning to `C=C1C(=O)C[C@H]2C(C)(C)CCC[C@]2(C)[C@H]1C=O`, the AFI with Spodoptera littoralis [1] amounted to 40.2%; in the assay on Spodoptera littoralis [2] it was 18.5%.

Consider `C=C1C(=O)C[C@H]2C(C)(C)CCC[C@]2(C)[C@H]1CC=O`, for which the IC50 in the assay on SK-MEL-28 was 2.5 µg/mL (≈ 10.1 µM); in the assay with A549, 1.2 µg/mL (≈ 4.83 µM); with HT-29 it was 2.5 µg/mL (≈ 10.1 µM); in the assay on P388 it was 1.2 µg/mL (≈ 4.83 µM). The MIC against Candida albicans, in the assay on Staphylococcus aureus, with Saccharomyces cerevisiae, against Enterococcus faecalis, against Bacillus subtilis and in the assay on Proteus was over 100 µg/mL throughout. The MIC is over 100 µg/mL against Cryptococcus neoformans, 100 µg/mL (≈ 403 µM) against Pseudomonas aeruginosa and over 100 µg/mL against Salmonella typhimurium. Moreover, the AFI in the assay with Spodoptera littoralis [1] is recorded as -10%; in the assay on Spodoptera littoralis [2], 43.7%. Moreover, the Activity result with Spodoptera littoralis [3] is “Dose-dependent effect”.

Usually IC50 stands for the midpoint of a concentration-inhibition curve. A lower IC50 goes with inhibition by little substance. As usually defined, the MIC is the least concentration at which growth counts as inhibited. Read a low MIC as a more susceptible organism.

For the origin of these results see ChEMBL document CHEMBL3045642, “Synthesis of biologically active drimanes and homodrimanes from ()-sclareol” (Tetrahedron, 1995).
